Test results taken from ChEMBL document CHEMBL1201862, “PubChem BioAssay data set” (2004).
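Interpolation was linear, between the two tested concentrations surrounding the appropriate level; five concentrations were tested over 48 hours in 96-well plates. Abbreviation: GI50, concentration required for 50% inhibition of growth.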 Calls of active or inactive are those of the source. Rule as the data show it: active = GI50 up to about 1.1 µM and inactive = higher.

Columns and labels:
Experiment in all cases: inhibition of tumour cell growth, NCI panel, 48 h
[1] = test system: SW-620
[2] = test system: Hs-578T
[3] = test system: OVCAR-5
[4] = test system: SK-MEL-5
[5] = test system: SN12C
[6] = test system: KM12
[7] = test system: MOLT-4
[8] = test system: DU-145
[9] = test system: EKVX
[10] = test system: NCI/ADR-RES
[11] = test system: SNB-19
[12] = test system: A549
[13] = test system: HCT-116
[14] = test system: SK-MEL-28
[15] = test system: MDA-MB-231
[16] = test system: A498
[17] = test system: OVCAR-8
[18] = test system: ACHN
[19] = test system: IGROV-1
[20] = test system: TK-10
[21] = test system: HOP-92
[22] = test system: SK-MEL-2
[23] = test system: T47D
[24] = test system: Malme-3M
[25] = test system: U-251
[26] = test system: HCT-15
[27] = test system: HCC 2998
[28] = test system: SNB-75
[29] = test system: SF-295
[30] = test system: K562
[31] = test system: PC-3
[32] = test system: RXF 393
[33] = test system: UACC-257
[34] = test system: M14
[35] = test system: MDA-N
[36] = test system: HOP-62
[37] = test system: NCI-H226
[38] = test system: SF-268
[39] = test system: COLO 205
[40] = test system: RPMI-8226
[41] = test system: MDA-MB-435
[42] = test system: SF-539
[43] = test system: NCI-H23
[44] = test system: UACC-62
[45] = test system: HT-29
[46] = test system: NCI-H522
[47] = test system: NCI-H460
[48] = test system: UO-31
[49] = test system: CAKI-1
[50] = test system: BT-549
[51] = test system: 786-0
[52] = test system: SK-OV-3
[53] = test system: MCF7
[54] = test system: OVCAR-3
[55] = test system: OVCAR-4
[56] = test system: SR
[57] = test system: HL-60
[58] = test system: CCRF-CEM
[59] = test system: LOX IMVI

CC1=C(Nc2c(C)cc(O)cc2O)C(=O)C=c2oc3c(c21)C(C)=C(Nc1c(C)cc(O)cc1O)C(=O)C=3
GI50 [1]: 35.5 µM (inactive) | GI50 [2]: 32 µM (inactive) | GI50 [3]: 47.5 µM (inactive) | GI50 [4]: 17.2 µM (inactive) | GI50 [5]: 30.4 µM (inactive) | GI50 [6]: 28.9 µM (inactive) | GI50 [7]: 27.4 µM (inactive) | GI50 [8]: 54.3 µM (inactive) | GI50 [9]: 47.5 µM (inactive) | GI50 [10]: > 100 µM (inactive) | GI50 [11]: 35.8 µM (inactive) | GI50 [12]: 38.5 µM (inactive) | GI50 [13]: 26.5 µM (inactive) | GI50 [14]: 52.5 µM (inactive) | GI50 [15]: 36.6 µM (inactive) | GI50 [16]: > 100 µM (inactive) | GI50 [17]: 38 µM (inactive) | GI50 [18]: > 100 µM (inactive) | GI50 [19]: 30.1 µM (inactive) | GI50 [20]: 94.8 µM (inactive) | GI50 [21]: > 100 µM (inactive) | GI50 [22]: 34.1 µM (inactive) | GI50 [23]: 52.4 µM (inactive) | GI50 [24]: 21.9 µM (inactive) | GI50 [25]: 37.8 µM (inactive) | GI50 [26]: 46.6 µM | GI50 [27]: 23.2 µM (inactive) | GI50 [28]: 25.6 µM (inactive) | GI50 [29]: 24.4 µM (inactive) | GI50 [30]: 34 µM (inactive) | GI50 [31]: 24.2 µM (inactive) | GI50 [32]: > 100 µM (inactive) | GI50 [33]: 29.8 µM (inactive) | GI50 [34]: 28.8 µM (inactive) | GI50 [35]: 18.6 µM (inactive) | GI50 [36]: 32.8 µM (inactive) | GI50 [37]: 43.9 µM (inactive) | GI50 [38]: 45.5 µM (inactive) | GI50 [39]: 20.8 µM (inactive) | GI50 [40]: 28.8 µM (inactive) | GI50 [41]: 15.9 µM (inactive) | GI50 [42]: 19.5 µM (inactive) | GI50 [43]: 20.3 µM (inactive) | GI50 [44]: 37.2 µM (inactive) | GI50 [45]: 28 µM (inactive) | GI50 [46]: 20.1 µM (inactive) | GI50 [47]: 30.3 µM (inactive) | GI50 [48]: 50.8 µM (inactive) | GI50 [49]: > 100 µM (inactive) | GI50 [50]: 32.9 µM (inactive) | GI50 [51]: 54.1 µM (inactive) | GI50 [52]: 45.7 µM (inactive) | GI50 [53]: 26.5 µM (inactive) | GI50 [54]: 15.6 µM (inactive) | GI50 [55]: 57.4 µM (inactive) | GI50 [56]: 0.0313 µM (active)

O=C1c2cc([N+](=O)[O-])sc2C(=O)c2c([N+](=O)[O-])csc21
GI50 [1]: 0.31 µM (active) | GI50 [57]: 0.0382 µM (active) | GI50 [2]: 0.65 µM (active) | GI50 [3]: 1.65 µM (inactive) | GI50 [4]: 0.166 µM (active) | GI50 [5]: 0.542 µM (active) | GI50 [6]: 1.24 µM (inactive) | GI50 [7]: 0.229 µM (active) | GI50 [8]: 1.7 µM (inactive) | GI50 [9]: 1.48 µM (inactive) | GI50 [10]: 1.48 µM (inactive) | GI50 [11]: 1.63 µM (inactive) | GI50 [58]: 0.0759 µM (active) | GI50 [12]: 1.9 µM (inactive) | GI50 [13]: 0.456 µM (active) | GI50 [14]: 0.713 µM (active) | GI50 [15]: 0.551 µM (active) | GI50 [16]: 1.92 µM (inactive) | GI50 [17]: 0.785 µM (active) | GI50 [18]: 0.324 µM (active) | GI50 [19]: 0.4 µM (active) | GI50 [20]: 1.63 µM (inactive) | GI50 [21]: 0.29 µM (active) | GI50 [59]: 0.112 µM (active) | GI50 [22]: 1.53 µM (inactive) | GI50 [23]: 0.69 µM (active) | GI50 [24]: 0.274 µM (active) | GI50 [25]: 0.379 µM (active) | GI50 [26]: 0.482 µM | GI50 [27]: 0.782 µM (active) | GI50 [28]: 1.77 µM (inactive) | GI50 [29]: 0.968 µM (active) | GI50 [30]: 0.116 µM (active) | GI50 [31]: 1.33 µM (inactive) | GI50 [32]: 0.706 µM (active) | GI50 [33]: 0.386 µM (active) | GI50 [34]: 0.367 µM (active) | GI50 [35]: 0.189 µM (active) | GI50 [37]: 1.52 µM (inactive) | GI50 [38]: 0.708 µM (active) | GI50 [39]: 0.925 µM (active) | GI50 [40]: 0.282 µM (active) | GI50 [41]: 0.168 µM (active) | GI50 [42]: 0.349 µM (active) | GI50 [43]: 0.711 µM (active) | GI50 [44]: 0.378 µM (active) | GI50 [45]: 1.17 µM (inactive) | GI50 [46]: 0.6 µM (active) | GI50 [47]: 1.55 µM (inactive) | GI50 [48]: 1.87 µM (inactive) | GI50 [49]: 1.11 µM (active) | GI50 [50]: 0.802 µM (active) | GI50 [51]: 0.483 µM (active) | GI50 [52]: 1.68 µM (inactive) | GI50 [53]: 0.365 µM (active) | GI50 [54]: 0.122 µM (active) | GI50 [55]: 0.64 µM (active) | GI50 [56]: 0.0479 µM (active)

COC(=O)NCCc1n[nH]c2c1C(=O)C=C(Nc1ccccc1)C2=O
GI50 [1]: 25.6 µM (inactive) | GI50 [57]: 19.2 µM (inactive) | GI50 [2]: 36.7 µM (inactive) | GI50 [3]: 29 µM (inactive) | GI50 [4]: 17.9 µM (inactive) | GI50 [5]: 34.8 µM (inactive) | GI50 [6]: 18.4 µM (inactive) | GI50 [7]: 19.7 µM (inactive) | GI50 [8]: 47.5 µM (inactive) | GI50 [9]: 27.3 µM (inactive) | GI50 [10]: 28.5 µM (inactive) | GI50 [11]: 28 µM (inactive) | GI50 [58]: 13.7 µM (inactive) | GI50 [12]: 36.7 µM (inactive) | GI50 [13]: 21.7 µM (inactive) | GI50 [15]: 25.9 µM (inactive) | GI50 [16]: 47.2 µM (inactive) | GI50 [17]: 17.9 µM (inactive) | GI50 [18]: 32.4 µM (inactive) | GI50 [19]: 24.5 µM (inactive) | GI50 [20]: > 100 µM (inactive) | GI50 [21]: 27.7 µM (inactive) | GI50 [59]: 15.5 µM (inactive) | GI50 [22]: 20.6 µM (inactive) | GI50 [23]: 30.1 µM (inactive) | GI50 [24]: 12.7 µM (inactive) | GI50 [25]: 15.2 µM (inactive) | GI50 [26]: 22.4 µM | GI50 [27]: 38.2 µM (inactive) | GI50 [28]: 57.3 µM (inactive) | GI50 [29]: 30.3 µM (inactive) | GI50 [30]: 28.2 µM (inactive) | GI50 [31]: 30.3 µM (inactive) | GI50 [32]: 41.2 µM (inactive) | GI50 [33]: 16.7 µM (inactive) | GI50 [34]: 33.4 µM (inactive) | GI50 [35]: 17.9 µM (inactive) | GI50 [36]: 68.2 µM (inactive) | GI50 [38]: 26 µM (inactive) | GI50 [39]: 16.8 µM (inactive) | GI50 [40]: 19.1 µM (inactive) | GI50 [41]: 17 µM (inactive) | GI50 [42]: 20.7 µM (inactive) | GI50 [43]: 15.1 µM (inactive) | GI50 [44]: 17.3 µM (inactive) | GI50 [45]: 24.1 µM (inactive) | GI50 [46]: 13.5 µM (inactive) | GI50 [47]: 32.4 µM (inactive) | GI50 [48]: 35.3 µM (inactive) | GI50 [49]: 46.1 µM (inactive) | GI50 [50]: 23.4 µM (inactive) | GI50 [51]: 47.3 µM (inactive) | GI50 [52]: 74.6 µM (inactive) | GI50 [53]: 15.5 µM (inactive) | GI50 [54]: 3.72 µM (inactive) | GI50 [55]: 15.4 µM (inactive) | GI50 [56]: 10.9 µM (inactive)
